Experimental data published in PubChem BioAssay AID449764 (Southern Research Specialized Biocontainment Screening …, 2010).

Test system: Mycobacterium tuberculosis H37Rv growth inhibition, no glycerol
Assay: Mycobacterium tuberculosis H37Rv growth inhibition, no glycerol, confirmatory dose response (AID 449764);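 note: growth read after 7 days of incubation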
Details: measured here: IC90 growth inhibition

First: Cc1ccc(OC/C(O)=C(\C#N)c2nc3ccccc3s2)cc1
Second: Cc1nc2ccc(OC(=O)c3ccccc3)cc2s1
The IC90 of the first is lower: 41.1 µM for the first, over 100 µM for the second.

`COc1ccccc1Nc1nc(N)nc(CCl)n1` and `COc1ccc(-n2nc3c(c2NC(=O)CCl)CSC3)cc1` are within 1.5-fold of each other in IC90: 12.3 µM for the first, 12.5 µM for the second.

`COc1ccc(OC)c(CN2CCN(C(=O)CNC(=O)c3ccc(C(C)(C)C)cc3)CC2)c1` and `COc1ccc(-c2cn(Cc3ccc(C(=O)NCc4ccc(C)cc4)cc3)c(C(C)N)n2)cc1` (stereo unspecified) are within 1.5-fold of each other in IC90: 91.1 µM for the first, 82.4 µM for the second.

Compared with `Cc1cc2cc(CNC(=O)NC3CCCCC3)ccc2[nH]1`, `Cc1ccc2nc(/N=C(\N)NC(=O)NC3CCCCC3)nc(C)c2c1` is 3.2-fold lower in IC90: 53.7 µM for the first, 16.6 µM for the second.

Going from `O=C(Nc1ccc(Cl)cc1)N(C1=NCCC1)c1ccc(OC(F)F)cc1` to `Cc1ccc(NC(=O)COc2ccc(-n3ccnc3)cc2)cc1Cl`, the IC90 falls from over 100 µM to 58.7 µM.

First: COc1cc(/C=C/c2cc[n+](C)cc2)ccc1OCC(=O)Nc1ccc(Cl)c(Cl)c1
Second: CCOC(=O)c1ccccc1NC(=O)COc1coc(CN2CCc3ccccc32)cc1=O
The IC90 of the first is 1.7-fold lower: 28 µM for the first, 47.8 µM for the second.

`[O-][n+]1c2ccccc2c2n1CCN1CCOC21c1ccc(Cl)cc1` (stereo unspecified) and `O=C(Oc1ccccc1-c1nnco1)c1ccc(Cl)cc1` are within 1.5-fold of each other in IC90: 79.3 µM for the first, 73.6 µM for the second.

First: CCCC12CN3CC(CCC)(CN(C1)C3c1ccccn1)C2=O (stereo unspecified)
Second: COc1c(C)cc(C(=O)C2CCCN(Cc3ccccn3)C2)cc1C (stereo unspecified)
The IC90 of the first is higher: over 100 µM for the first, 29.7 µM for the second.

`COC(=O)c1ccc(Cn2cc(C(F)(F)F)cc([N+](=O)[O-])c2=O)cc1` and `COC(=O)c1ccc(CSc2nc(C(F)(F)F)c3c(c2C#N)CCC3)o1` cannot be ordered by IC90: over 100 µM for the first, over 100 µM for the second.

Compared with `CC1(C)OC(=O)C(=Cc2ccc[nH]2)C(=O)O1`, `Cc1ccc(/C=C2\C(=O)Nc3ccccc32)o1` is lower in IC90: over 100 µM for the first, 6.56 µM for the second.

Compared with `Oc1ccccc1/C=N/NC(=S)NC1CC2CC1C1C=CCC21` (stereo unspecified), `CSC(=S)N/N=C/c1ccccc1` is 3-fold higher in IC90: 18 µM for the first, 54.1 µM for the second.

Going from `O=C1Nc2ccc(Br)cc2/C1=C/C(=O)c1ccc2c(c1)OCO2` to `Cn1nc(-c2ccccc2F)c2cc(C(=O)Nc3ccc4c(c3)OCCO4)sc21`, the IC90 rises from 23.7 µM to over 100 µM.

Going from `CC1=C(/C=C/C(C)=C/C=C/C(C)=C/C(=O)Nc2ccc(O)cc2)C(C)(C)CCC1` to `Cc1oc(C(=O)Nc2ccc(O)cc2)cc1COc1ccccc1`, the IC90 falls from 64.7 µM to 35.1 µM (1.8-fold).

Compared with `c1nc2n(n1)C1=C(CCCC1)C1(CCCCC1)N2`, `CCc1c(C2(O)CCCCC2)[nH]c2ccc(C(F)(F)F)cc12` is higher in IC90: 44.3 µM for the first, over 50 µM for the second.

`Cn1nc(C(F)(F)F)c2cc(NC(=O)OCC(C)(C)C)sc21` and `CC(C)(C)NC(=O)COC(=O)c1cc(Br)ccc1Cl` are within 1.5-fold of each other in IC90: 43.1 µM for the first, 45.4 µM for the second.

Compared with `Nc1c(C(=O)NC2CCCCC2)nsc1C(=O)OCC(=O)NC1CCCCC1`, `O=C(Nc1ccccc1)C1=C[C@@H](C2CCCCC2)C[C@@H](OCc2ccc(CO)cc2)O1` is 14-fold higher in IC90: 3.4 µM for the first, 47.6 µM for the second.

First: COc1ccc(SN=C2C(C)=CC(=O)C=C2C)cc1
Second: COc1ccc(-c2ccc(-c3noc(C(C)C)n3)c(OC)n2)cc1
The IC90 of the first is 2.2-fold lower: 24.9 µM for the first, 54.6 µM for the second.

`COc1ccc(NCc2nc3ccccc3n2CCOc2ccccc2)cc1` and `c1ccc(Cn2c(CNc3nc4ccccc4n3CCN3CCCCC3)nc3ccccc32)cc1` are within 1.5-fold of each other in IC90: 88.6 µM for the first, 72.8 µM for the second.

Compared with `CCOc1ccc(-c2[nH]ncc2-c2ccc(Cl)cc2)c(O)c1`, `CCCOc1ccc(C(=O)NC(=S)NCc2cccnc2)cc1` is 1.6-fold lower in IC90: 72.3 µM for the first, 45.7 µM for the second.

First: COc1cccc(-c2cc3nc4c(c(NCC(C)(C)CN(C)C)n3n2)CCCC4)c1
Second: COc1ccc(CNc2ncnc3c2[nH]c2cc(OC)c(OC)cc23)cc1
The IC90 of the first is 2.5-fold lower: 36.3 µM for the first, 89.5 µM for the second.

First: Cc1cc(C)c2cc(C(=O)Nc3ccc(C)c(F)c3)[nH]c2c1
Second: Cc1ccc2[nH]c(C)c(CCNC(=O)c3cc4cc([N+](=O)[O-])ccc4oc3=O)c2c1
The IC90 of the first is 9.3-fold lower: 1.91 µM for the first, 17.8 µM for the second.

`C=CCOc1c(Br)cc(CNc2nccs2)cc1OC` and `Cc1ccn2c(-c3csc(NCc4ccccc4)n3)c(C)nc2c1` are within 1.5-fold of each other in IC90: 48.2 µM for the first, 51.5 µM for the second.

First: CCCCC(=O)Nc1sc2c(c1C(=O)OCC)CCC(C=O)=C2Cl
Second: CCOC(=O)c1c(CC(C)C)csc1NC(=O)CCl
The IC90 of the first is higher: over 100 µM for the first, 11.2 µM for the second.

Going from `Cc1ccc(-c2csc3nc4c5ccccc5c(NCCCN5CCOCC5)nn4c(=O)c23)cc1` to `COc1cccc(/C=N/Nc2ncnc3scc(-c4ccccc4)c23)c1O`, the IC90 falls from 39.8 µM to 6.44 µM (6.2-fold).

First: CC(C)COCc1ccc(O)c2ncccc12
Second: c1ccc(-c2nc3c(ccc4ccccc43)[nH]2)nc1
The IC90 of the first is 26-fold lower: 2.59 µM for the first, 68.5 µM for the second.

Compared with `CC(C)C(=O)N1CCC2(CC1)Oc1ccc(Cl)cc1C(=O)C21CC(c2ccccc2)=NO1` (stereo unspecified), `O=C(Nc1cccc(Cl)c1)N1CCN(C/C=C/c2ccccc2)CC1` is lower in IC90: over 100 µM for the first, 51.3 µM for the second.

Going from `Cc1c(Cl)cccc1NC(=O)CN1CCC(C(O)(c2ccccc2)c2ccccc2)CC1` to `CC(C)(C)c1ccc(C(O)CCCN2CCC(C(O)(c3ccccc3)c3ccccc3)CC2)cc1` (stereo unspecified), the IC90 falls from over 100 µM to 13.7 µM.

`OCC1(Cc2cccc(Cl)c2)CCCN(Cc2ccc3cc(F)ccc3n2)C1` (stereo unspecified) and `c1ccc(-c2nc(N3CCCC3)nc3ccccc23)cc1` are within 1.5-fold of each other in IC90: 54.6 µM for the first, 53.5 µM for the second.

First: Cn1c(/C=N/Nc2nc3ccccc3[nH]2)nc2ccccc21
Second: N=C1C(c2nc3ccccc3[nH]2)=C(O)CN1NC(=O)c1c[nH]c2ccccc12
The IC90 of the first is 2-fold higher: 79.8 µM for the first, 40.1 µM for the second.

`C=C(C)CSc1cc(C)c(C#N)c2nc3ccccc3n12` and `CC(O)CNc1nc2ccccc2n1-c1ncnc2sc3c(c12)CCC3` (stereo unspecified) are within 1.5-fold of each other in IC90: 52.3 µM for the first, 42.1 µM for the second.

Going from `CC(C)(C)C(=O)NC(=S)NNC(=O)c1sc2ccccc2c1Cl` to `Cc1cccc(C(=O)NNC(=S)NC(=O)c2ccccc2)c1`, the IC90 falls from over 100 µM to 2.69 µM.

`CCN1C(=NCCc2ccc(Br)cc2)N[C@@H](c2ccccc2)[C@H](C(=O)OC)[C@H]1C` and `Cc1c(CN(C)C)c2c(n1Cc1ccccc1)C(=O)c1ccc(Br)cc1-2` are within 1.5-fold of each other in IC90: 25.8 µM for the first, 27.8 µM for the second.

First: CCCCn1c(SCc2ncc(-c3ccccc3)o2)nc2cc(S(N)(=O)=O)ccc21
Second: CCCCOCCCn1c(-c2ccco2)nc2nc3ccccc3nc21
The IC90 of the first is lower: 8.34 µM for the first, over 100 µM for the second.

First: COc1ccccc1C1c2ccc3ccccc3c2Oc2ncn(CCN(C)C)c(=N)c21 (stereo unspecified)
Second: CCCCN1C(=O)C2(NNc3ccccc3O2)c2ccccc21 (stereo unspecified)
The IC90 of the first is lower: 28.9 µM for the first, over 100 µM for the second.

Going from `CCC(C)Nc1ccc(NC(C)CC)cc1` (stereo unspecified) to `Cn1nc([N+](=O)[O-])nc1Sc1ccc(C(C)(C)C)cc1`, the IC90 rises from 2.97 µM to 17.1 µM (5.8-fold).

Compared with `CN(CC(=O)Nc1ccc(F)c(F)c1F)c1cnccn1`, `CO/N=C(\Cn1ncc(N2CCCC2)c(Cl)c1=O)c1ccc(Cl)cc1` is 2-fold higher in IC90: 13.4 µM for the first, 26.9 µM for the second.

Compared with `CN(Cc1ccc(Cl)s1)C(=O)CCl`, `Cc1ccc(N(CCC#N)C(=O)CCl)cc1C` is 4.9-fold higher in IC90: 1.73 µM for the first, 8.42 µM for the second.

`O=C(Nc1ccc(C2=NCCN2)cc1)c1ccc(Cl)c(C(=O)Nc2ccc(C3=NCCN3)cc2)c1` and `O=C(Nc1nnc(C2=COCCO2)o1)c1ccc(Cc2ccccc2)cc1` are within 1.5-fold of each other in IC90: 25.4 µM for the first, 20.3 µM for the second.

First: CCOC(=O)c1sc2nc3n(c(=O)c2c1C)CCC(C)CC3 (stereo unspecified)
Second: Cc1ccc(C)c(N2CCN(C(=O)c3ccc4nc(N5CCOCC5)sc4c3)CC2)c1
The IC90 of the first is 1.8-fold lower: 26.4 µM for the first, 47.6 µM for the second.

Compared with `O=C(O)c1[nH]c(=O)[nH]c(=O)c1F`, `CC1(C)c2[nH]c3ccccc3c2C[C@@H]2C(=O)N(Cc3ccccc3F)C(=O)N21` is higher in IC90: 14.1 µM for the first, over 50 µM for the second.

Going from `COc1ccc(C[C@H]2CN3C(=NC[C@H]3Cc3ccccc3)N2CCNC(=O)CCC2CCCCC2)cc1` to `CCCCCc1ccc(S(=O)(=O)NCCc2ccncc2)cc1`, the IC90 rises from 24.3 µM to 47 µM (1.9-fold).

`S=C(NCc1ccc(Cl)cc1)NC12CC3CC(CC(C3)C1)C2` and `O=C(NC(=S)Nc1ccc(N2CCCCC2)c(Cl)c1)c1cccs1` are within 1.5-fold of each other in IC90: 28.1 µM for the first, 29.2 µM for the second.

`Fc1nc(F)c(F)c(NCCCNc2c(F)c(F)nc(F)c2F)c1F` and `Cc1cc2c(cc1C)CSC(c1c(O)ccc3ccccc13)SC2` cannot be ordered by IC90: over 100 µM for the first, over 100 µM for the second.

First: Cc1ccc(NC(=O)C2C3/C=C\CCCCC32)cc1C (stereo unspecified)
Second: CC1Cc2cc(-c3csc(NC(=O)Cc4cccs4)n3)ccc2N1S(C)(=O)=O (stereo unspecified)
The IC90 of the first is lower: 4.49 µM for the first, over 100 µM for the second.

Compared with `COc1ccc2c(c1)CC/C(=C\C=C\c1ccccc1OC)C2=O`, `c1ccc2c(c1)CCN(c1nc3cc4c(cc3s1)OCCO4)C2` is lower in IC90: over 100 µM for the first, 55 µM for the second.

`O=[N+]([O-])c1cc([N+](=O)[O-])c2cc3ccccc3nc2c1` gave an IC90 of 0.64 µM.
